{"source": "patent US20220313697A1", "about": "“NEK6 Inhibition to Treat ALS and FTD” (VIB VZW, priority 2021, published 2022)", "key": {"[1]": {"system": "hiPSC-derived cortical neurons treated with PR20", "assay": "Axonal transport analysis (mitochondrial transport, MitoTracker-Red) in PR20-treated neurons", "type": "cell-based, human", "conditions": "for axonal transport defects observed upon PR-treatment: 200 nm I-3 or 300 nm I-18, added 3 days before and together with PR20; for number of moving mitochondria / ratio of moving mitochondria to total amount of mitochondria: 200 nm I-3 or 300 nm I-18, vs PR-treatment alone", "description": "Axonal transport defects are an early event in the pathogenesis of ALS (Guo et al 2019 Semin Cell Dev Biol 99:133-150). To assess whether axonal transport defects also occur in cortical neurons from healthy donor hiPSC-cortical neurons treated with PR20 and from C9orf72 patient-derived cortical neurons, mitochondrial transport studies were performed.\nTo test whether chemical inhibition of NEK6 could be used as a treatment of DPR toxicity as well, the recently described NEK6 inhibitor ZINC05007751 was tested. iCas9-hiPSC derived cortical neurons (cultured for 70-80 days) were treated with 1.75 μM to 14 μM of the inhibitor at dayl and at day 3. The cells were subjected to a PR20 treatment (1.5 μM) at day 3 together with the compound. Axonal transport measurements were performed at day 4.\nThe same experiments are performed with the NEK6 inhibitors ZINC05007751 and with the NEK6 inhibitors described in WO2019126696A1.\nDIV79-DIV84 iPSC-derived cortical neurons were loaded with MitoTracker-Red (50 nM, Invitrogen), washed and left to equilibrate (20 min) in NMM, before transferring them to a HEPES buffered salt solution (pH 7.4, 150 mM NaCl, 5 mM KCl, 1 mM MgCl2, 2 mM CaCl2, 10 mM glucose, 10 mM HEPES). Measurements were performed on an inverted Zeiss Axiovert 200M microscope (Carl Zeiss) with a 40× water immersion lens. Neurons were selected under differential interference optics (DIC) based on typical morphology consisting of a soma and long-extended neurites. MitoTracker-RED was excited at 580 nm, using a TILL Poly V light source (TILL Photonics) and image sequences were recorded (200 images at 1 Hz) onto a cooled CCD camera (PCO Sensicam-QE) using TillVisION (TILL Photonics) software. A heated gravityfed perfusion system was used to keep cells at 36±0.5° C. during the recordings. All image analysis was performed in Igor Pro (Wavemetrics) using custom written routines based on a previously described analysis algorithm (Vanden Berghe 2004 Am. J. Physiol. Gastrointest. Liver Physiol. 286, G671-G682). In brief, kymographs or spatio-temporal maps were constructed for each of the neuronal processes. In these maps, stationary mitochondria appear as vertical lines and moving mitochondria generate tilted lines. Proportions of moving and stationary mitochondria were extracted from the maps by marking and analyzing the properties of each of the mitochondrial trajectories."}, "[2]": {"system": "poly(PR) zebrafish model", "assay": "poly(PR) zebrafish model of motor axonopathy", "type": "in vivo", "description": "Therefore, a morpholino-mediated NEK6 knockdown was performed in a poly(PR) zebrafish model as described in Swinnen et al (2018 Acta Neuropathol doi:10.1007/s00401-017-1796-5). In this model, micro-injection of poly(PR) encoding mRNA results in a motor axonopathy in zebrafish embryos, characterised by reduced axonal lengths and aberrant axonal branching (Swinnen et al 2018 Acta Neuropathol doi:10.1007/s00401-017-1796-5).\nZebrafish work was performed as previously described in Swinnen et al (2018 Acta Neuropathol 135, 427-443). Zebrafish oocytes were injected at one-cell stage with the indicated amounts of the morpholinos. The splice-blocking morpholino against Danio rerio nek6 (transcript ENSDART00000132599.2; morpholino sequence 5′-[…]-3′) and the standard control oligo (morpholino sequence 5′-[…]-3′) were designed and generated by Gene Tools (Philomath, USA). Injected oocytes were incubated at 28° C. After 24 hpf, the embryos were dechorionated by using a forceps. Only morphologically normal embryos were selected for downstream experiments. At 30 hpf, the selected fish were deyolked and subsequently fixed overnight at 4° C. in 4% formaldehyde in lx PBS. Fish were permeabilized with acetone for 1 h at −20° C., blocked with 1% BSA/1% DMSO/PBS for 1 h at room temperature and immune-stained with mouse anti-SV2 primary antibody followed by secondary antibody. For phenotyping, 15 consecutive embryos per condition were analyzed with imaging (Leica DM 3000 LED microscope; DMK 33UX250 USB3.0 monochrome industrial camera, The Imaging Source, Bremen, Germany) and the Lucia software (version 4.60, Laboratory Imaging, Prague, Czech Republic) by a blinded observer. For the axonal length, a standardized method was used; five predefined and consecutive motor axons (i.e. the 8th up to the 12th axon on one side) were measured in all 15 embryos. Data for axonal length were normalized to the control condition. For the abnormal branching, a predefined set of 20 consecutive motor axons (i.e. the 8th up to the 17th axon on both sides) in the same 15 embryos were analyzed visually. […]"}, "[3]": {"system": "iCas9-iPSC DIV80 neuronal progeny", "type": "cell-based", "conditions": "human", "description": "Next, the iCas9-iPSC derived DIV79 neurons were treated with PR20 peptides to mimic DPR toxicity (Cheng et al 2019 Neuron 72:1-14; Kramer et al 2018 Nat Genet 50:603-612).\nTo validate results from the screen, iCas9-NPCs were individually transduced with sgRNAs directed against the top 3 candidate genes, CRKL, SNRK and NEK6, that enhanced survival in the interference screen. A 50-60% reduction in protein levels of CRKL, SNRK and NEK6 was observed after doxycycline treatment (FIG. 5). […] A more pronounced effect could be observed using sgRNAs against NEK6 and SNRK.\nResazurin (R7017, Sigma) was added to the cells in neuron maintenance medium (NMM) at a concentration of 1 μg/ml. Cells were incubated for 1 h in 37° C. with 5% CO2. […] was evaluated using 540 nm excitation and 590 nm emission settings."}, "[4]": {"conditions": "co-injection of poly(PR) mRNA with 0.5 mM morpholino, 30 hpf"}}, "note": "Ends that are not written are not given here.", "data": [{"molecule": "COc1cc(N2CCN(C)CC2)ccc1Nc1ncc2c(n1)n1c(cc3ccccc31)c(=O)n2C", "note": "[Compound I-3]", "values": [{"measurement": "axonal transport defects observed upon PR-treatment", "setting": "[1]", "result": "statistically significantly rescues"}, {"measurement": "number of moving mitochondria", "setting": "[1]", "result": "statistically significantly improved"}, {"measurement": "ratio of moving mitochondria to total amount of mitochondria", "setting": "[1]", "result": "statistically significantly improved"}]}, {"molecule": "5′-ATGTTAGAAAGTGTACCTCGATGCA-3′ (all phosphorodiamidate morpholino (PMO)) [Nek6 morpholino]", "values": [{"measurement": "poly(PR)-induced axonal phenotype", "setting": "[2]; co-injection of poly(PR) mRNA with 0.5 mM morpholino in oocytes", "result": "significantly prevented"}, {"measurement": "aberrant axonal branching", "setting": "[2]; [4]", "result": "less aberrantly branched axons"}, {"measurement": "axonal length", "setting": "[2]; [4]", "result": "partial normalization"}]}, {"molecule": "PRPRPRPRPRPRPRPRPRPRPRPRPRPRPRPRPRPRPRPR [PR20]", "values": [{"measurement": "neuronal progeny died (dose-response, cell viability)", "setting": "[3]", "result": "70-80%"}, {"measurement": "axonal transport", "setting": "[1]; 1.5 μM PR20, normal donor iPSC-DIV79 cortical neurons", "result": "significantly decreased"}]}, {"molecule": "CC1=C(C#N)C(O)=NC(=O)/C1=C\\c1ccc(-c2ccccc2)o1", "note": "[ZINC05007751]", "values": [{"measurement": "axonal transport defects induced by PR20", "setting": "[1]; 1.75 μM to 14 μM inhibitor at day 1 and day 3, PR20 1.5 μM at day 3, measured at day 4", "result": "overruled the axonal transport defects"}]}, {"molecule": "CCOc1cc(N2CCC(O)CC2)ccc1Nc1ncc2c(n1)n1c(cc3ccccc31)c(=O)n2C", "note": "[Compound I-18]", "values": [{"measurement": "axonal transport defects observed upon PR-treatment", "setting": "[1]", "result": "statistically significantly rescues"}, {"measurement": "number of moving mitochondria", "setting": "[1]", "result": "statistically significantly improved"}, {"measurement": "ratio of moving mitochondria to total amount of mitochondria", "setting": "[1]", "result": "statistically significantly improved"}, {"measurement": "number of total mitochondria", "setting": "[1]; 300 nm I-18, vs PR-treatment alone", "result": "statistically significantly increased"}]}]}
